Data: paper PMC10051910 (Marine Drugs, 2023)

System: COMI cells
Type: cell-based, Human

Question: How did the p53 level turn out when `CC[C@@]1(O)C(=O)OCc2c1cc1n(c2=O)Cc2cc3ccccc3nc2-1` [camptothecin] was run?
Answer: massively upregulate p53
